Experimental data: patent publication US20220242905A1, “MODIFIED PEPTIDES AND THEIR USE” (UNIVERSITE DE MONTPELLIER, priority 2018, published 2022)
Converted amounts (≈) assume the structure as drawn. Where two headings read alike, the source gives them in different places.

Legend:
[1] = system: Candida albicans ATCC10231; format: cell-based; settings: for Minimal inhibitory concentration (MIC) C. albicans ATCC10231: ATCC10231, 48 h
Procedure: (§1) Minimal inhibitory concentration (MIC) values and minimal bactericidal concentration (MBCs) values for ATC-peptides 1-9 were determined against both Gram-positive (Bacillus subtilis, Staphylococcus aureus, Enterococcus faecalis) and Gram negative (Escherichia coli, Pseudomonas aeruginosa) bacteria as well as a yeast (Candida albicans). Experiments were conducted in triplicate. For B. subtilis, compounds were tested against vegetative cells and spores, which are particularly resistant to the action of antimicrobial agents. MIC and MBCs values are shown Table 12. In addition, haemolytic properties of 1-9 were tested.
(§2) the antimicrobial performances of oligomers antimicrobial activity were determined on three Gram positive strains (Bacillus subtilis ATCC6633, Staphylococcus aureus ATCC6538 and Enterococcus faecalis ATCC29121), two Gram negative strains (Escherichia coli ATCC8739 and Pseudomonas aeruginosa ATCC9027) and one fungal strain (Candida albicans ATCC10231). Each bacterial strain was allowed to grow overnight on Trypto-Caseine-Soja agar (TSA, Difco) at 37° C., C. albicans was allowed to grow 48 h on a sabouraud medium (Difco) at 20-25° C. A fresh suspension at 10^8 CFU·mL^−1 was then prepared by inoculating the micro-organisms in a Tryptone-Sel solution. Concentration was monitored by measuring transmitted light at 620 nm or with the Mac Farland turbidity standard (Mac Farland=0.5≈10^8 CFU·mL^−1). Each suspension was then diluted in a doubly strong Mueller-Hinton (MH, Difco) broth to […]. Two-fold serial dilutions (100 μL) of oligomers in sterile water (pH adjusted between 7.4 and 7.7 with HCl and NaOH solutions) were mixed with microbial inoculum (100 μL) in NUNC sterile clear polystyrene flat-bottom 96-well plates. A 1/1 v/v oligomer solution/water mixture was used a negative control and a 1/1 vv water/microbial inoculum mixture was used a positive control. Plates were then incubated 24 h at 37° C. for bacteria and 48 h at 25° C. for C. albicans. Minimum Inhibitory Concentration (MIC) was determined as the lowest concentration inhibiting the growth of each micro-organism. […] Minimum Bactericidal Concentration (MBC) was determined as the lowest concentration that prevent the growth of more than one colony. Each assay was performed in a triple duplicate for each strain.

[2] = system: Staphylococcus aureus ATCC6538; format: cell-based; settings: for Minimal inhibitory concentration (MIC) S. aureus ATCC6538: ATCC6538, 24 h
Procedure: as §1, §2

[3] = system: Escherichia coli ATCC8739; format: cell-based; settings: for Minimal inhibitory concentration (MIC) E. coli ATCC8739: ATCC8739, 24 h
Procedure: as §1, §2

[4] = system: Enterococcus faecalis ATCC29121; format: cell-based; settings: for Minimal inhibitory concentration (MIC) E. faecalis ATCC29121: ATCC29121, 24 h
Procedure: as §1, §2

[5] = system: Pseudomonas aeruginosa ATCC9027; format: cell-based; settings: for Minimal inhibitory concentration (MIC) P. aeruginosa ATCC9027: ATCC9027, 24 h
Procedure: as §1, §2

[6] = system: Bacillus subtilis ATCC6633; format: cell-based; settings: for Minimal inhibitory concentration (MIC) B. subtilis ATCC6633: ATCC6633, 24 h
Procedure: as §1, §2

[7] = system: Human red blood cells (hRBCs); assay: Hemolytic activity; format: cell-based; settings: 1 h at 37° C., printed in the HD50 column
Procedure: (§3) Procedure for measurements of hemolytic activity: Human red blood cells (hRBCs) were washed multiple times with phosphate-buffered saline (PBS) until a clear supernatant was obtained. The hRBCs suspension was made in PBS with a Packed Cell Volume of 5%, Two-fold serial dilutions (50 μL) of oligomers in sterile water (pH adjusted between 7.4 and 7.7 with HCl and NaOH solutions) were mixed with hRBCs suspension (50 μL) in clear polystyrene optical-bottom 96-well plates which were filmed and incubated for 1 h at 37° C. A 1/1 vv hRBCs solution/PBS mixture was used a negative control and a 1/1 vv hRBCs solution/1% (TRIS 50 mM pH=8.0+1% SDS) mixture was used a positive control for 100% hemolysis. The mixture was then centrifuged at 1500 g for 10 min at 5° C. Next, 50 μL of the supernatant was transferred into a second plate, and the absorbance was read at 490 nm using a BioRad iMark plate reader. The hemolysis percentage was calculated by the formula % hemolysis=[Absorbance (sample)−Absorbance (negative control)]/[Absorbance (positive control)−Absorbance (negative control)]×100%. Each assay was performed in a double duplicate. Hemolytic activity was determined or estimated with the Hemolytic Concentration leading to 50% of lysis of hRBCs (HC50).

E. coli [8] = assay: Surface electron microscopy (SEM) of bacterial morphology; format: cell-based, Escherichia coli; settings: after 60 min incubation with 8×MIC; untreated about 2.0 μm
Procedure: FIG. 18 represents electronic microscopy photos. A/, B/ and C/ SEM micrographs untreated E. coli on glass platelets. In isotonic medium the cells are long, intact and evenly shaped.
FIG. 19 represents SEM micrographs untreated E. coli after 60 min incubation with 8×MIC of 9.
Surface electron microscopy (SEM) experiments: oligomer 9 was evaluated for its impact on E. coli morphology by surface electron microscopy (SEM). In order to define the best incubation period to observed antimicrobial effects, time-kill study was conducted over 2 h incubation at 37° C. […] Significant decrease of the growth rate was observed between 40 to 60 min at 4× and 8×MIC. […] experiments were performed after 60 min contact between bacteria cells and compound 9. […] In addition, whereas there were no fragments for control untreated bacteria, numerous spherical elements whose diameters were lower than 0.1 μm were observed around bacteria, the number of which increasing with the peptide concentration. Despite some dispersion in size, such fragments, probable microsomes, were classically reported with other AMPs associated with membrane permeation and/or depolarization. [M. Hartmann, M. Berditsch J. Hawecker, F. Ardakani, D. Gerthsen, A. S. Ulrich, Antimicrob. Agents Chemother. 2010, 54, 3132-3142 b/ E. Duval, C, Zatylny, M. Laurencin, M. Baudy-Floc'h, J. Henry, Peptides 2009, 30, 1608-1612.] […]

E. coli [9] = format: cell-based, Escherichia coli; settings: 2 h
Procedure: FIG. 17 represents a graphic showing the results of a time-kill study of oligomer 9 on E. coli over 2 h incubation at 37° C.
Surface electron microscopy (SEM) experiments: oligomer 9 was evaluated for its impact on E. coli morphology by surface electron microscopy (SEM). In order to define the best incubation period to observed antimicrobial effects, time-kill study was conducted over 2 h incubation at 37° C. […] Significant decrease of the growth rate was observed between 40 to 60 min at 4× and 8×MIC. TEM experiments were performed after 60 min contact between bacteria cells and compound 9. […] In addition, whereas there were no fragments for control untreated bacteria, numerous spherical elements whose diameters were lower than 0.1 μm were observed around bacteria, the number of which increasing with the peptide concentration. Despite some dispersion in size, such fragments, probable microsomes, were classically reported with other AMPs associated with membrane permeation and/or depolarization. [M. Hartmann, M. Berditsch J. Hawecker, F. Ardakani, D. Gerthsen, A. S. Ulrich, Antimicrob. Agents Chemother. 2010, 54, 3132-3142 b/ E. Duval, C, Zatylny, M. Laurencin, M. Baudy-Floc'h, J. Henry, Peptides 2009, 30, 1608-1612.]

Hemolytic activity = format: cell-based, Human; settings: human, human red blood cell suspension; hRBCs, 1 h at 37° C.; read-out: HD50, dose required to lyse 50% of the red blood cells
Procedure: as §3

[10] = value in bracket, 24 h at 37° C.

Row | Minimal inhibitory concentration (MIC) C. albicans ATCC10231 [1] [µM] | Minimal inhibitory concentration (MIC) S. aureus ATCC6538 [2] [µM] | Minimal inhibitory concentration (MIC) E. coli ATCC8739 [3] [µM] | Minimal inhibitory concentration (MIC) E. faecalis ATCC29121 [4] [µM] | Minimal inhibitory concentration (MIC) P. aeruginosa ATCC9027 [5] [µM] | Minimal inhibitory concentration (MIC) B. subtilis ATCC6633 [6] [µM] | SMILES | HD10 [7] [µM] | Minimal bactericidal concentration (MBC) C. albicans ATCC10231 ([1]; value in bracket, 48 h at 25° C.) | Minimal bactericidal concentration (MBC) S. aureus ATCC6538 [2, 10] | Minimal bactericidal concentration (MBC) E. coli ATCC8739 [3, 10] | Minimal bactericidal concentration (MBC) E. faecalis ATCC29121 [4, 10] | Minimal bactericidal concentration (MBC) P. aeruginosa ATCC9027 [5, 10] | Minimal bactericidal concentration (MBC) B. subtilis ATCC6633 [6, 10] | length of E. coli cells (E. coli [8]) [μm] | average log reduction of the viable cell count (E. coli [9]) [log10 cfu/ml] | average log reduction of the viable cell count (E. coli [9]; 8) [log10 cfu/ml] | HC50 at 1 h (Hemolytic activity) [µM]
1 | 50 (≈ 127 µg/mL) | 100 (≈ 253 µg/mL) | 5.2 (≈ 13.2 µg/mL) | >150 | 100 (≈ 253 µg/mL) | 0.8 (≈ 2.03 µg/mL) | CC(=O)N[C@@H](CCCCN)c1nc(C)sc1C(=O)N[C@@H](C)c1nc(C)sc1C(=O)N[C@@H](C)c1nc(CCCCN)sc1C(=O)N[C@@H](C)c1nc(C)sc1C(=O)N[C@@H](C)c1nc(CCCCN)sc1C(=O)N[C@@H](CCCCN)c1nc(C)sc1C(=O)N[C@@H](C)c1nc(CCCCN)sc1C(=O)N[C@@H](CCCCN)c1nc(C)sc1C(=O)N[C@@H](C)c1nc(C)sc1C(=O)N[C@@H](C)c1nc(C)sc1C(=O)N[C@@H](C)c1nc(CCCCN)sc1C(=O)N[C@@H](CCCCN)c1nc(C)sc1C(N)=O [Oligomer 5] | 62.5 | – | – | – | – | – | – | – | – | – | –
2 | 6.2 (≈ 17.1 µg/mL) | 3.1 (≈ 8.55 µg/mL) | 1.8 (≈ 4.97 µg/mL) | 20.8 (≈ 57.4 µg/mL) | 4.2 (≈ 11.6 µg/mL) | 0.6 (≈ 1.66 µg/mL) | CC(=O)N[C@@H](CCCNC(=N)N)c1nc(C)sc1C(=O)N[C@@H](C)c1nc(CCCNC(=N)N)sc1C(=O)N[C@@H](C)c1nc(C)sc1C(=O)N[C@@H](CCCNC(=N)N)c1nc(C)sc1C(=O)N[C@@H](C)c1nc(CCCNC(=N)N)sc1C(=O)N[C@@H](C)c1nc(C)sc1C(=O)N[C@@H](CCCNC(=N)N)c1nc(C)sc1C(=O)N[C@@H](C)c1nc(CCCNC(=N)N)sc1C(=O)N[C@@H](C)c1nc(C)sc1C(=O)N[C@@H](CCCNC(=N)N)c1nc(C)sc1C(=O)N[C@@H](C)c1nc(CCCNC(=N)N)sc1C(=O)N[C@@H](C)c1nc(C)sc1C(N)=O [Oligomer 9] | – | (6.2) μM | (7.8) μM | (2.3) μM | (25) μM | (4.7) μM | (0.8) μM | ≥ 1.3 | 0.95 | 4.73 | > 100
